Measurements published in US20060247223A1, “Non-imidazole alkylamines as histamine H3- receptor ligands and their therapeutic applications” (priority 1998, published 2006).
Structures can show the parent of a compound that is named as a salt. Where two headings read alike, the source gives them in different places.

Columns and labels:
H3 receptor [1] = molecular target: T1, H3 receptor (Mus musculus, UniProt P58406); test: tele-methylhistamine level variations in the brain of mice after p.o. administration; assay type: in vivo; conditions: for ED50: mouse, po, brain tele-methylhistamine level, dose responsible for an half maximal effect; for ED50 (mg/kg/p.o.): tele-methylhistamine level in brain, dose for half maximal effect
T1 construct: estimated in vivo by the measurement of the tele-methylhistamine level variations in the brain of mice; from tissue; host or cells: mouse brain, in vivo after p.o. administration
Excerpt: At various time after p.o. administration of the. compounds, the effect of agonists and antagonists are evidenced by the decrease and increase respectively in telemethylhistamine level induced.
The changes are compared to those induced by reference compounds given in high dosage and this allows the calculation of the ED50 value for each compound which correspond to the dose responsible for an half maximal effect.

H3 receptor [2] = molecular target: T2, H3 receptor (Rattus norvegicus, UniProt Q9QYN8); test: release of neosynthesized tritiated histamine from rat cerebral cortex synaptosomes; assay type: biochemical
T2 construct: release of neosynthesized tritiated histamine from rat cerebral cortex synaptosomes; from tissue; host or cells: rat cerebral cortex synaptosomes

H3 receptor [3] = molecular target: T3, H3 receptor (Cavia porcellus, UniProt Q9JI35); test: guinea-pig ileum longitudinal muscle strips, electrically stimulated contraction, (R)α-methylhistamine curves with antagonist; assay type: biochemical; conditions: against (R)α-methylhistamine, 1 μM mepyramine present, read-out: H3-receptor antagonist activity pA2 (guinea-pig ileum) (converted)
T3 construct: longitudinal muscle strips from guinea-pig small intestine were dissected out; from tissue; host or cells: guinea-pig small intestine longitudinal muscle strips
Experimental: Briefly, longitudinal muscle strips from guinea-pig small intestine were dissected out and incubated in a gassed O2/CO2 (95%/5%) modified Krebs-Ringer's bicarbonate medium at +37° C. in presence of 1 μM mepyramine to block the H1 receptor. After equilibration, contractile activity under stimulation (rectangular pulses of 15 V, 0.5 msec, 0.1 Hz) was recorded. Concentration-response curves of the effect of (R)α-Methylhistamine alone or together with the antagonist were established.

[4] = H3 receptor, rat cerebral cortex synaptosomes, reversal of (R)α-methylhistamine inhibition of tritiated histamine release, read-out: Ki

T3 sequence (Q9JI35 whole entry): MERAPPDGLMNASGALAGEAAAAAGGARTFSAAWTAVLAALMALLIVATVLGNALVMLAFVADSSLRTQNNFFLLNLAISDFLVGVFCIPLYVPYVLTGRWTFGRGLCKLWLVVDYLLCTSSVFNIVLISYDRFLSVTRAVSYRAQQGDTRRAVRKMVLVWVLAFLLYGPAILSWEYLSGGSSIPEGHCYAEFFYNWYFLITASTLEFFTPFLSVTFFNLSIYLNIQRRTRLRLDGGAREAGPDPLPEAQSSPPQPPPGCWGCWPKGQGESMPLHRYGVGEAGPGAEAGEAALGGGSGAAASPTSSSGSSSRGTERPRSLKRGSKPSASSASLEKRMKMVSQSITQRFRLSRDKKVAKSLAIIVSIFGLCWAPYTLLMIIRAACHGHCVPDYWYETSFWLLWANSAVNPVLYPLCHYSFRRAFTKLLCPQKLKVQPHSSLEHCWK
T1 sequence (P58406 whole entry): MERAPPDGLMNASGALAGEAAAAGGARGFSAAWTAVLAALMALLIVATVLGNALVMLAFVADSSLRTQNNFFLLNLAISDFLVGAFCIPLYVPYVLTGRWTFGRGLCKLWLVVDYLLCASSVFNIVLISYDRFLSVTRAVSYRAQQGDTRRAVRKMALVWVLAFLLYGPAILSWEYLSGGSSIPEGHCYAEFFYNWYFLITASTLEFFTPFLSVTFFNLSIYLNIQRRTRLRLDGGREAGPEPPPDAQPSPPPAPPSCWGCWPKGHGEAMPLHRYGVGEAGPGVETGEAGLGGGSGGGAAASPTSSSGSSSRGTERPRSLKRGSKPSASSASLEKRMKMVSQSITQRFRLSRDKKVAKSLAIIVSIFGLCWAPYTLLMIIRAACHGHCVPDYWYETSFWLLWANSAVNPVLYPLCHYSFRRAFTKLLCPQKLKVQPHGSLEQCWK
T2 sequence (Q9QYN8 whole entry): as the sequence (P58406 whole entry) above, with A15T, T286A, G290A, H387R, V389I counted along it

| Structure (SMILES) | Ki (H3 receptor [2]; [4]) | ED50 (mg/kg/p.o.) (H3 receptor [1]) | also measured |
| --- | --- | --- | --- |
| C[C@H]1C[C@H](C)CN(CCCOc2ccc(C#N)cc2)C1 (relative stereo) (as salt: oxalate) [Example 100, 1-[3-(4-cyanophenoxy)propyl]-trans-3,5-dimethylpiperidine] |  |  | melting point: 163 to 165 °C |
| C[C@H]1C[C@H](C)CN(CCCOc2ccc(C(=O)C3CC3)cc2)C1 (relative stereo) (as salt: oxalate) [Example 101, 1-[3-(4-cyclopropanecarbonylphenoxy)propyl]-trans-3,5 dimethylpiperidine] |  |  | melting point: 136 to 138 °C |
| C[C@H]1C[C@H](C)CN(CCCOc2ccc(C(=O)C3CC3)cc2)C1 (relative stereo) [Example 101, 1-[3-(4-cyclopropanecarbonylphenoxy)propyl]-trans-3,5 dimethylpiperidine] |  |  | ED50 (H3 receptor [1]): 0.17 mg/kg |
| C[C@H]1C[C@H](C)CN(CCCCCOc2ccccc2)C1 (stereo in doubt) (as salt: oxalate) [Example 12, 1-(5-phenoxypentyl)-3,5-trans-dimethyl-piperidine] |  |  | melting point: 154 to 155 °C |
| CC(=O)c1ccc(OCCCN2C[C@@H](C)C[C@H](C)C2)cc1 (stereo in doubt) (as salt: oxalate) [Example 67, 1-[3-(4-acetylphenoxy)-propyl]-3,5-trans-dimethyl-piperidine] |  |  | melting point: 171 to 172 °C |
| CC1CCCN(CCCCCOc2ccccc2)C1 (centres unmarked) [Example 10, 1-(5-phenoxypentyl)-3-methyl-piperidine] |  |  | melting point: 140 to 141 °C |
| O=[N+]([O-])c1ccc(OCCCCCN2CCCC2)cc1 [Example 18, 1-[5-(4-nitrophenoxy)-pentyl]-pyrrolidine] | 0.039 ± 0.011 µM | 1.1 mg/kg/p.o. |  |
| CCN(CC)CCCOc1ccc(C#N)cc1 [Example 43, N-[3-(4-cyanophenoxy)-propyl]-diethylamine] | 0.095 ± 0.028 µM | 0.50 mg/kg/p.o. |  |
| CCN(CC)CCCOc1ccc(C(C)=O)cc1 [Example 46, N-[3-(4-acetylphenoxy)-propyl]-diethylamine] | 0.02 ± 0.007 µM | 0.44 mg/kg/p.o. |  |
| CC(O)c1ccc(OCCCCCN2CCCC2)cc1 (centres unmarked) [Example 50, 1-{5-[4-(1-hydroxyethyl)-phenoxy]-pentyl}-pyrrolidine] | 0.028 ± 0.007 µM | 1.0 mg/kg/p.o. |  |
| CCN(CC)CCCCOc1ccc(C#N)cc1 [Example 56, N-[4-(4-cyanophenoxy)-butyl]-diethylamine] | 0.062 ± 0.015 µM | 1.1 mg/kg/p.o. |  |
| N#Cc1ccc(OCCCN2CCCCC2)cc1 [Example 59, 1-[3-(4-cyanophenoxy)propyl]piperidine] |  | 0.20 mg/kg/p.o. | Ki (H3 receptor [2]): 0.011 ± 0.002 µM; ED50 (H3 receptor [1]): 0.02 mg/kg |
| N#Cc1ccc(OCCCN2CCCCCC2)cc1 [Example 60, N-[3-(4-cyanophenoxy)-propyl]-hexamethyleneimine] | 0.0087 ± 0.0021 µM | 0.64 mg/kg/p.o. |  |
| CCN(CC)CCCOc1ccc(C(C)O)cc1 (centres unmarked) [Example 63, N-3-[4-(1-hydroxyethyl)-phenoxy]-propyl-diethylamine] | 0.06 ± 0.018 µM | 0.45 mg/kg/p.o. |  |
| CCN(CC)CCCOc1ccc(/C(C)=N/O)cc1 [Example 64, 4-(3-diethylaminopropoxy)-acetophenone-oxime] | 0.0027 ± 0.0009 µM | 0.8 mg/kg/p.o. |  |
| CC(=O)c1ccc(OCCCN2CCCC(C)C2)cc1 (centres unmarked) [Example 66, 1-[3-(4-acetylphenoxy)-propyl]-3-methyl-piperidine] | 0.0037 ± 0.0005 µM | 0.3 mg/kg/p.o. |  |
| CC(=O)c1ccc(OCCCN2CCC(C)CC2)cc1 [Example 68, 1-[3-(4-acetylphenoxy)-propyl]-4-methyl-piperidine] | 0.0046 ± 0.002 µM | 0.5 mg/kg/p.o. |  |
| CCC(=O)c1ccc(OCCCN2CCCCC2)cc1 [Example 69, 1-[3-(4-propionylphenoxy)-propyl]-piperidine] | 0.0047 ± 0.0008 µM | 0.6 mg/kg/p.o. |  |
| CCCC(=O)c1ccc(OCCCN2CCCCC2)cc1 [Example 74, 1-[3-(4-buyrylphenoxy)propyl]piperidine] |  |  | ED50 (H3 receptor [1]): 0.21 mg/kg |
| O=C(c1ccc(OCCCN2CCCCC2)cc1)C1CC1 [Example 76, 1-[3-(4-cyclopropanecarbonylphenoxy)propyl]piperidine] |  |  | ED50 (H3 receptor [1]): 0.18 mg/kg |
| CCC(=O)c1ccc(OCCCN2CCCC(C)C2)cc1 (centres unmarked) [Example 88, 1-[3-(4-propionylphenoxy)propyl]-3-methylpiperidine] |  |  | ED50 (H3 receptor [1]): 0.14 mg/kg |
| CCCCCNC(=O)OCCCN1CCCCC1 [Example 120, N-Pentyl-3-piperidinopropyl carbamate] |  |  | Kb (H3 receptor [3]): 0.501 µM |
| CCCCCCC(=O)N1CCC(N2CCCCC2)CC1 [Example 124, N-Heptanoyl-1,4′-bipiperidine] |  |  | Kb (H3 receptor [3]): 0.398 µM |
| c1ccc2sc(NCCN3CCCCC3)nc2c1 [Example 131, 2-((2-Piperidinoethyl)amino)benzothiazole] |  |  | Kb (H3 receptor [3]): 0.251 µM |
| c1ccc(CCCCCCN2CCCCC2)cc1 [Example 136, N-(6-Phenylhexyl)piperidine] |  |  | Kb (H3 receptor [3]): 0.316 µM |
